# Molecular target: T1, HTH-type transcriptional regulator MgrA (Staphylococcus aureus, UniProt P0C1S0)
# T1 sequence (P0C1S0 whole entry): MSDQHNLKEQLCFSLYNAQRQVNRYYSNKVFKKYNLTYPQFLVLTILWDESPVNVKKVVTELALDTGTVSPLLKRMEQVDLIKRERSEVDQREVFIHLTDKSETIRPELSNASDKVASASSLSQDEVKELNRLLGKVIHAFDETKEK
# Assay: Biochemical Assay
# Details: pH 7.4
# Protocol: A fluorescence anisotropy (FA)-based biochemical assay that monitors MgrA-DNA binding. To determine the binding affinity of MgrA to the labeled DNA, different amounts of MgrA were added into the 96-well format plate.
compound,measurement,value
"Cc1ccc(C)n1[C@@H](CC(=O)O)c1ccc2c(c1)OCO2 [MgrA inhibitor, 2]",IC50,30 µM

# Source: BindingDB's records for doi:10.1016/j.chembiol.2011.05.014 (The University of Chicago, 2011)
